From US20260240807A1, “UROLITHINS FOR IMPROVING CARDIAC FUNCTION AND HEALTH” (Amazentis SA, priority 2022, published 2026)

How the values were obtained:
Old C57BL/6 mice [1] = assay: Echocardiography in old mice (age-related heart dysfunction); format: in vivo, mouse; conditions: old mice (26 months), chow diet with urolithin A 50 mg/kg for 2 months
Protocol: (§1) The goal of the study is to evaluate urolithin treatment effect age-related heart dysfunction. […] Old C57BL/6 mice (26 months) were used as model to reproduce natural decline in heart function with aging. Chow diet with and without urolithin A was administered for 2 months at 50 mg/kg. Post-mortem heart muscles, skeletal muscles, and plasma samples post-mortem were collected at the end of the study. Ejection Fraction (EF), Fractional Shortening (FS) were measured by echocardiography. Muscle contractility was also measured. Analysis of both heart and skeletal muscle function were conducted at the end of the study.

[2] = test system: gene sets (Cellular Components) repressed with aging in heart; assay: RNA-seq gene set enrichment analysis of heart, old mice; format: in vivo, mouse; conditions: old mice treated with UA 50 mg/kg for 2 months vs old vehicle
Protocol: (§2) The goal of the study was to evaluate urolithin treatment effect on age-related heart dysfunction. Old C57BL/6 mice (24 months at the end of the study) were used as model to reproduce natural decline in heart function with aging and administered by gavage for 2 months with either Urolithin A at 50 mg/kg (Old UA) or vehicle (Old Vehicle). Young mice (18 weeks-old at the end of the study) were administered with vehicle for 2 months. Post-mortem heart muscles, were collected at the end of the study.
RNA-seq analysis from samples derived from example 3 has been performed as described for example 1.
A Gene set enrichment analysis was performed looking at gene set (i.e., biological pathways) belonging to the category “Cellular Components”.

[3] = test system: mitochondrial complex II enzyme SDH; assay: Succinate dehydrogenase activity staining of heart sections; format: in vivo, mouse; conditions: old mice, 50 mg/kg by gavage for 2 months, vs old vehicle control
Protocol: as §2
Hearts in OCT were cut into sections of […] using a cryostat. Sections were then incubated in a solution containing nitroblue tetrazolium (1.5 mM), sodium succinate (130 mM), phenazine methosulphate (0.2 mM), and sodium azide (0.1 mM) for 6 min at room temperature. The reaction was stopped by two washes in PBS. Slides were mounted using Fluoromont mounting medium (Thermofisher, 00-4958-02). All samples were processed successively using the same incubation solution ensuring that they underwent the exact same experimental conditions. Images of the tissues were taken with a bright field microscope. The intensity of the staining was analyzed with Image J.

Old C57BL/6 mice [4] = assay: Skeletal muscle function (muscle contractility) in old mice; format: in vivo, mouse; conditions: old mice (26 months), chow diet with urolithin A 50 mg/kg for 2 months
Protocol: as §1

[5] = test system: gene sets (Cellular Components) linked to mitochondrial function in heart tissue; assay: RNA-seq gene set enrichment analysis of heart sections, MI rats; format: in vivo, rat; conditions: MI+UA vs MI rats, 25 mg/kg PO
Protocol: Heart sections from rats in the groups described in FIG. 1 (Example 1) have been prepared using a microtome, deparaffinized and RNA extracted using the following kit (RNAeasy FFPE 76504, Qiagen). Upon extraction, RNA was quality controlled with Agilent Fragment Analyzer System.
Library preparation was performed using Strand-specific cDNA library and following the steps here indicated: • rRNA depletion. • mRNA fragmentation. • Random primed cDNA synthesis (strand-specific) • Adapter ligation and adapter specific PCR amplification RNA-seq run was executed with the NovaSeq6000 using S4 flowcells with 2×150 bp.
QC and preprocessing of raw sequencing reads was performed using an in-house QC pipeline. […] High quality RNA-seq read pairs were mapped to the Ensembl rat reference genome
Reads with a minimum PHRED score of 15, a minimum length of 15 bp, and a minimum unqualified percent limit of 40 (40%) were retained for downstream analysis. […]
Gene Set Enrichment Analysis (GSEA) (Subramanian, et al. Proc Natl Acad Sci USA 2005, 102 (43), 15545-50) was performed for characterizing complex relations of gene expression changes with gene ontologies (cellular components), under different biological conditions. […] Gene ranking information is transformed to pathway level to assign statistical significance for each analyzed gene set. […]

[6] = test system: heart mitochondria of old C57BL/6 mice; assay: Transmission electron microscopy of heart mitochondria in old mice; format: in vivo, mouse; conditions: 50 mg/kg by gavage for 2 months, vs old vehicle
Protocol: as §2
Muscle samples from animals as described in example 2 were fixed in 2% glutaraldehyde solution 0.1 M Sorenson's buffer (pH 7.3). These samples were later postfixed in 1% osmium tetroxide for 8 min [pulse microwaved (MW), 100 watts (W)] and rinsed in distilled H2O (3×150 W 40 s per step). Samples were dehydrated in a graded series of acetone (25%; 50%; 75%; 3× 100%; 150 W 40 seconds per step) before being impregnated with increasing concentrations of epoxy resin (TAAB medium resin) in acetone (25%; 50%; 75%; 3×100%; 300 W 3 min per step). The samples were then embedded in 100% fresh resin and left to polymerize at 60° C. in a conventional oven for a minimum of 24 h.
All resin blocks were trimmed using a razor blade to form a trapezoid block face. Sections were cut in a longitudinal or transverse orientation on an ultramicrotome (Wolf et al., 2019) using a diamond knife. Semithin sections (0.5 μm) were stained with toluidine blue and viewed on a light microscope (LM) to verify orientation of tissue. Ultrathin sections (70 nm) were then cut and picked up onto copper grids. Sections from blocks were stained with 1% uranyl acetate (30 min) and 3% lead citrate (7 min). All sections were examined using a HT7800 120 kV TEM (Hitachi). Digital micrographs were captured using an EMSIS Xarosa CMOS Camera with Radius software.
These samples were later postfixed in 1% osmium tetroxide during 1 h, dehydrated within an increasing concentration of acetone. […]
Individual heart mitochondria from 3 Young vehicle, 3 Old vehicle and 3 Old UA O-AL mice were manually traced in transverse orientations using ImageJ software (NIH) (https://imagej.nih.gov/ij/) and to quantify the following morphological and shape descriptors: area (μm2), perimeter (μm), circularity 4π×(area/perimeter2), aspect ratio ((major axis)/(minor axis)): the aspect ratio being a measure of the length to width ratio, form factor ((perimeter)/(4π×surface)): a measure sensitive to the complexity and the branched appearance of the mitochondria, Feret's diameter (the longest distance (μm) between two points of the mitochondria studied) and minimum Feret diameter (corresponds to the smallest diameter of the mitochondria) (Picard et al., 2012). […]

[7] = test system: Wistar male rats with myocardial infarction (permanent LAD occlusion); assay: Echocardiography and heart mass after myocardial infarction (LAD ligation); format: in vivo, rat; conditions: MI rats, 25 mg/kg daily by gavage for 2 months starting one week after MI, vs MI vehicle
Protocol: The goal of the study is to assess urolithin A treatment effect on heart function after myocardial infarction. […] Myocardial infarction (MI) was induced in 6-week old Wistar male rats from groups 1, 2, and 3 (Table 3), by permanent occlusion of Left Anterior Descending coronary artery (ligation was performed at Do).
Rats were anesthetized with an intraperitoneal (IP) injection of Medetomidine (0.5 mg/kg) and ketamine (50 mg/kg), intubated and ventilated at 10 mL/kg tidal volume and 70-80 cycles/min. Body temperature were maintained between 36.5° C. and 37.5° C. via a thermoregulated heating pad connected to a rectal probe. Rats were placed in supine position, chest-shaved and prepared for standard surgical conditions. A left lateral thoracotomy was carefully performed so as to expose the heart. Then, a suture was placed around the LAD (4/0 Silk, Ethicon), around 2 mm below the left atrium and close to the interventricular junction, in order to obtain infarct size (IS) near 40% of the total left ventricular (LV) area. Chest was closed, air was expelled from the rib cage to avoid pneumothorax and quick reanimation was performed using atipamezole hydrochloride (IM, 0.5 mg/ml, Zoetis).
Animals from group 1 were subjected to the same protocol as MI groups. However, after the left lateral thoracotomy exposing the heart, the rib cage were closed without passing the suture thread around LAD.
Urolithin A or vehicle were administered by gavage at 25 mg/kg starting one week after myocardial infraction. Heart and plasma samples were collected at each time point. Ejection Fraction (EF), Fractional Shortening (FS), Isovolumic relaxation time (IVRT) were measured by echocardiography at 1 month and 2 month time points to evaluate heart function. […]
Rats were anesthetized with 4% isoflurane in 50% oxygen-50% air mixture and maintained with 2% isoflurane during the procedure. […] Body temperature was monitored and maintained between 36.5-37.5° C. via a rectal probe connected to the thermoregulated heating pad.
Standard B-mode (Brightness-mode) and M-mode (Motion-mode) images of the heart were obtained in the two-dimensional (2D) parasternal long axis view (PSLA). LV parameters will be measured and calculated as the mean of 3 consecutive cardiac cycles by a single blinded trained operator. • Left Ventricular function LV function is calculated using the LV dimensions parameters previously described. • FS=fractional shortening=[(LVIDd−LVIDs)/LVIDd]*100. It is a calculation based on the difference of dimensions between systole and diastole measured in M-mode. […] It is a calculation based on the difference of volumes between systole and diastole measured in B-mode and M-mode. […]

O=c1oc2cc(O)ccc2c2ccc(O)cc12 [Urolithin A]
increase in fractional shortening, after high-workload (Old C57BL/6 mice [1]; after high-workload): +39%
increase in fractional shortening, basally (Old C57BL/6 mice [1]; basal): +32%
gene sets repressed with aging (respirasome, sarcolemma), normalized enrichment score [2]: induced
SDH enzymatic activity in the heart [3]: significantly increases
skeletal muscle function (Old C57BL/6 mice [4]): significantly prevents age-related decline
gene sets repressed with MI (mitochondrial protein-containing complex, respirasome, nucleoids, peroxisomes), normalized enrichment score [5]: induced
cristae number ([6]; heart mitochondria): significantly increases
cristae volume density ([6]; heart mitochondria): significantly increases
mitophagy events, quantified as number of mitolysosomes ([6]; heart): significantly increases
mitochondrial area ([6]; heart, to levels compared to young animals): significantly increased
cardiac hypertrophy, calculated as heart weight over tibia length [7]: reduces
diastolic function, measured as isovolumetric relaxation time [7]: improves
systolic dysfunction measured as Ejection fraction [7]: significantly improves
systolic dysfunction measured as Fractional shortening [7]: significantly improves
